According to patent publication US6818663B2, “Diaminothiazoles” (Hoffmann-La Roches, priority 2002, dated 2004):

Experiments:
human cyclin B-CDK1 = human cyclin B-CDK1 (Homo sapiens, UniProt P06493); assay: FlashPlate kinase assay, cyclin B-CDK1, Rb substrate; assay type: biochemical; settings: recombinant cyclin B-CDK1, Rb phosphorylation, 1 μM ATP
Summary of the method: (§1)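 Recombinant human cyclin–CDK complexes, co-expressed in insect cells, phosphorylated His-tagged Rb (aa 386-928) coated on FlashPlates at 10 μg/ml. Reaction used 1 μM ATP plus 4 nM ^33P-ATP and 20 mM MgCl2 for 30 min at room temperature. % inhibition came from scintillation counts against no-enzyme and no-compound wells, and IC50 was the concentration halving radiolabel incorporation.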

[1] = test system: HCT116, a colorectal carcinoma cell line; assay: Tetrazolium dye proliferation assay (MTT assay); assay type: cell-based; settings: Homo sapiens, HCT-116, HCT116 cells, inhibition of cell proliferation
Method: Proliferation was evaluated by the tetrazolium dye assay according to the procedure of Denizot and Lang (Denizot, F. and Lang, R. J Immunol Methods 1986, 89, 271-277). The cell line used was HCT116, a colorectal carcinoma cell line obtained from the American Type Cell Culture Collection (ATCC; Rockville, Md.). The cells were grown in McCoy's 5A medium supplemented with 10% FCS and L-glutamine.
Cells were plated at the appropriate seeding density to give logarithmic growth over the course of the assay in a 96-well tissue culture plate. Plates were incubated overnight at 37° C. in a humidified incubator with 5% CO2. The next day, test compounds were serially diluted to four times the final concentration in the appropriate medium containing 1.2% DMSO. One-fourth final volume of each dilution was added in duplicate to the plates containing cells. The same volume of 1.2% DMSO in medium was added to a row of “control wells” such that the final concentration of DMSO in each well was 0.3%. Wells to which no cells were added served as the “blank.” Wells to which no inhibitor was added served as “no inhibitor control.” The plates were) returned to the incubator, and at set time points (determined by their growth curves) plates were analyzed as described below.
3-(4,5-dimethylthiazole-2-yl)-2,5-diphenyl-2H-tetrazolium bromide (thiazolyl blue; MTT; Sigma) was added to each well to yield a final concentration of 1 mg/ml. Plates were returned to the incubator for 2.5-3 hours at 37° C. The MTT-containing medium was removed and the resulting formazan metabolite was solubilized in 100% ethanol with shaking for 15 minutes at room temperature. Absorbance readings were taken in a microtiter plate reader (Dynatech and Molecular Devices plate readers were used interchangeably) at a wavelength of 570 nm with a 650 nm reference. Percent inhibition (% INH) is calculated by subtracting the absorbance of the blank well from all wells, then subtracting the ratio of the average absorbance of each test duplicate (SAVE) by the average of the controls (CAVE) from 1.00. The final number is then multiplied by 100 (% INH=(1.00−SAVE/CAVE)×100). The concentration at which 50% inhibition of cell proliferation is obtained (the IC50) is determined from the linear regression of a plot of the logarithm of the concentration versus percent inhibition.

human cyclin E-CDK2 = human cyclin E-CDK2 (Homo sapiens, UniProt P24941); assay: FlashPlate kinase assay, cyclin E-CDK2, Rb substrate; assay type: biochemical; settings: recombinant cyclin E-CDK2, Rb phosphorylation, 1 μM ATP
Summary of the method: as §1

human cyclin D1-CDK4 = human cyclin D1-CDK4 (Homo sapiens, UniProt P11802); assay: FlashPlate kinase assay, cyclin D1-CDK4, Rb substrate; assay type: biochemical; settings: recombinant cyclin D1-CDK4, Rb phosphorylation, 1 μM ATP
human cyclin D1-CDK4, sequence (P11802 whole entry): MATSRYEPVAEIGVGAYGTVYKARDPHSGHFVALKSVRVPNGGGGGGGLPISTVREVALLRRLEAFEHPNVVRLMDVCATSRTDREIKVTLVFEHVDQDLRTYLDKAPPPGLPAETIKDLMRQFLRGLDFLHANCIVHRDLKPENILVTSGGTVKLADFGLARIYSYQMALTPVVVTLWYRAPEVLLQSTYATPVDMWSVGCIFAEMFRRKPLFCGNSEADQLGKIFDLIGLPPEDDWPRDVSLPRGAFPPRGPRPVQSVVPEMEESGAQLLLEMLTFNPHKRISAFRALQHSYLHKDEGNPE
human cyclin D1-CDK4, sequence (P24385 whole entry partner): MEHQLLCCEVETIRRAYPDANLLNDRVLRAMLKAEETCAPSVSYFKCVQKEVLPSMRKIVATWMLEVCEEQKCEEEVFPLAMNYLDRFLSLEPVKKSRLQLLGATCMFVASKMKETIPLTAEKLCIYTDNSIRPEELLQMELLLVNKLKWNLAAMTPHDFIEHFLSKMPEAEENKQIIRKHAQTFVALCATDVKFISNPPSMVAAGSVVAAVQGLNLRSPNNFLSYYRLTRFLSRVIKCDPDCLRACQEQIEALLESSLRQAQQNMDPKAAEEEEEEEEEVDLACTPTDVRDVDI
Summary of the method: as §1

human cyclin B-CDK1, sequence (P06493 whole entry, the tested form may be a part): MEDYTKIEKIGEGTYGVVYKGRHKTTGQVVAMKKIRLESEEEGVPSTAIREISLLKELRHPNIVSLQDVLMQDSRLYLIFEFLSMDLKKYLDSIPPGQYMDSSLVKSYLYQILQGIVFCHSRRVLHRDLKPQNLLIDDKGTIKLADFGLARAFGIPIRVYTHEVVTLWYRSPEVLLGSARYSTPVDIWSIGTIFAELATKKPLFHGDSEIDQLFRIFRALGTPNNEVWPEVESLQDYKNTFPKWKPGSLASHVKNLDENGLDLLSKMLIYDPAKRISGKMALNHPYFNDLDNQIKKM
human cyclin B-CDK1, sequence (P14635 whole entry partner, the tested form may be a part): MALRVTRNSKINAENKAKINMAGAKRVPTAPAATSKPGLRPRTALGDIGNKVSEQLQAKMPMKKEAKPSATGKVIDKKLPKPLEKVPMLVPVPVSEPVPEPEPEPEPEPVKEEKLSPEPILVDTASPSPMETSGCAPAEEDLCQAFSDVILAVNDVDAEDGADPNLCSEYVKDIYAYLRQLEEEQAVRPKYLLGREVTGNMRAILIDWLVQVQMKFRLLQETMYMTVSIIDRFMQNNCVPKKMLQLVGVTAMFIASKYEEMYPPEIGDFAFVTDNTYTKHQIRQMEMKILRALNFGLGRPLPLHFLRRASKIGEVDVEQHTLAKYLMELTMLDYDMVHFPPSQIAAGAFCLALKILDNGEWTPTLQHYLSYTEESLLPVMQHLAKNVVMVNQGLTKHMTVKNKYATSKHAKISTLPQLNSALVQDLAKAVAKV

IC50 (human cyclin B-CDK1)	IC50 [1]	IC50 (human cyclin E-CDK2)	IC50 (human cyclin D1-CDK4)	SMILES
241 nM	280 nM	234 nM	39 nM	CCCc1cc(C(=O)c2sc(Nc3ccc(OC4CCCN(CC)C4)cc3)nc2N)ccc1O (stereo not shown) [Example 88, [4-Amino-2-[4-(1-ethyl-piperidin-3-yloxy)-phenylamino]-thiazol-5-yl]-(4-hydroxy-3-propyl-phenyl)-methanone; Compound With Acetic Acid]
261 nM	327 nM	175 nM	19 nM	CCCc1cc(C(=O)c2sc(Nc3ccc(OC4CCN(CC)C4)cc3)nc2N)ccc1O (stereo not shown) [Example 89, [4-Amino-2-[4-(1-ethyl-pyrrolidin-3-yloxy)-phenylamino]-thiazol-5-yl]-(4-hydroxy-3-propyl-phenyl)-methanone; Compound With Acetic Acid]
538 nM	1570 nM	495 nM	51 nM	CCc1cccc(C(=O)c2sc(Nc3ccc(OC4CCNC4)cc3)nc2N)c1 (stereo not shown) [Example 92, [4-Amino-2-[4-(pyrrolidin-3-yloxy)-phenylamino]-thiazol-5-yl)-(3-ethyl-phenyl)-methanone; Compound With Acetic Acid]
859 nM	2020 nM	1200 nM	42 nM	Nc1nc(Nc2ccc(OC3CCNC3)cc2)sc1C(=O)c1cccc(C2CC2)c1 (stereo not shown) [Example 93, [4-Amino-2-[4-(pyrrolidin-3-yloxy)-phenylamino]-thiazol-5-yl]-(3-cyclopropyl-phenyl)-methanone; Compound With Acetic Acid]
668 nM	3290 nM	1440 nM	39 nM	COc1ccc(C(=O)c2sc(Nc3ccc(OC4CCNC4)cc3)nc2N)cc1F (stereo not shown) [Example 96, [4-Amino-2-[4-(pyrrolidin-3-yloxy)-phenylamino]-thiazol-5-yl]-(3-fluoro-4-methoxy-phenyl)-methanone]
731 nM	880 nM	1230 nM	43 nM	CCNCCOc1ccc(Nc2nc(N)c(C(=O)c3cccc(C)c3)s2)cc1 [Example 100, [4-Amino-2-(4-(2-ethylamino-ethoxy)-phenylamino]-thiazol-5-yl]-m-tolyl-methanone; Compound With Acetic Acid]
660 nM	685 nM	1110 nM	21 nM	CCNCCOc1ccc(Nc2nc(N)c(C(=O)c3cccc(CC)c3)s2)cc1 [Example 101, [4-Amino-2-[4-(2-ethylamino-ethoxy)-phenylamino]-thiazol-5-yl]-(3-ethyl-phenyl)-methanone; Compound With Acetic Acid]
883 nM	738 nM	1690 nM	26 nM	CCNCCOc1ccc(Nc2nc(N)c(C(=O)c3cccc(C4CC4)c3)s2)cc1 [Example 102, [4-Amino-2-[4-(2-ethylamino-ethoxy)-phenylamino]-thiazol-5-yl]-(3-cyclopropyl-phenyl)-methanone; Compound With Acetic Acid]
432 nM	1430 nM	1760 nM	41 nM	CCNCCOc1ccc(Nc2nc(N)c(C(=O)c3ccc(C)c(F)c3)s2)cc1 [Example 103, [4-Amino-2-[4-(2-ethylamino-ethoxy)-phenylamino]-thiazol-5-yl]-(3-fluoro-4-methyl-phenyl)-methanone; Compound With Acetic Acid]
3510 nM	2450 nM	3310 nM	52 nM	CCNCCOc1ccc(Nc2nc(N)c(C(=O)c3ccc(F)c(CC)c3)s2)cc1 [Example 104, [4-Amino-2-[4-(2-ethylamino-ethoxy)-phenylamino]-thiazol-5-yl]-(3-ethyl-4-fluoro-phenyl)-methanone; Compound With Acetic Acid]
112 nM	390 nM	176 nM	18 nM	CCCc1cc(C(=O)c2sc(Nc3ccc(OCCNCC)cc3)nc2N)ccc1O [Example 105, [4-Amino-2-[4-(2-ethylamino-ethoxy)-phenylamino]-thiazol-5-yl]-(4-hydroxy-3-propyl-phenyl)-methanone; Compound With Acetic Acid]

Second part, the molecule before the results:

SMILES	IC50 (human cyclin B-CDK1)	IC50 [1]	IC50 (human cyclin E-CDK2)	IC50 (human cyclin D1-CDK4)
C[C@H](COc1ccc(Nc2nc(N)c(C(=O)c3cccc(C4CC4)c3)s2)cc1)N1CCCC1 [Example 68, (R)-[4-Amino-2-[4-(2-pyrrolidin-1-yl-propoxy)-phenylamino]-thiazol-5-yl]-(3-cyclopropyl-phenyl)-methanone]	2070 nM	1210 nM	4540 nM	51 nM
CN(C)CCOc1ccc(Nc2nc(N)c(C(=O)c3cccc(C4CC4)c3)s2)cc1 [Example 69, [4-Amino-2-[4-(2-dimethylamino-ethoxy)-phenylamino]-thiazol-5-yl]-(3-cyclopropyl-phenyl)-methanone]	1780 nM	1050 nM	2890 nM	40 nM
C[C@H](COc1ccc(Nc2nc(N)c(C(=O)c3cccc(C4CC4)c3)s2)cc1)N(C)C [Example 70, (R)-[4-Amino-2-[4-(2-dimethylamino-propoxy)-phenylamino]-thiazol-5-yl]-(3-cyclopropyl-phenyl)-methanone]	2960 nM	1930 nM	3140 nM	38 nM
CN(C)C(C)(C)COc1ccc(Nc2nc(N)c(C(=O)c3cccc(C4CC4)c3)s2)cc1 [Example 71, [4-Amino-2-[4-(2-dimethylamino-2-methyl-propoxy)-phenylamino]-thiazol-5-yl]-(3-cyclopropyl-phenyl)-methanone]	3860 nM	2360 nM	2110 nM	39 nM
Nc1nc(Nc2ccc(OCCN3CCCC3)cc2)sc1C(=O)c1cccc(C2CC2)c1 [Example 72, [4-Amino-2-[4-(2-pyrrolidin-1-yl-ethoxy)-phenylamino]-thiazol-5-yl]-(3-cyclopropyl-phenyl)-methanone]	1980 nM	1380 nM	1180 nM	37 nM
CCN1CCCC(Oc2ccc(Nc3nc(N)c(C(=O)c4cccc(C)c4)s3)cc2)C1 (stereo not shown) [Example 78, [4-Amino-2-[4-(1-ethyl-piperidin-3-yloxy)-phenylamino]-thiazol-5-yl]-m-tolyl-methanone]	806 nM	1510 nM	1080 nM	41 nM
CCc1cccc(C(=O)c2sc(Nc3ccc(OC4CCCN(CC)C4)cc3)nc2N)c1 (stereo not shown) [Example 79, [4-Amino-2-[4-(1-ethyl-piperidin-3-yloxy)-phenylamino]-thiazol-5-yl]-(3-ethyl-phenyl)-methanone]	1080 nM	1470 nM	1170 nM	23 nM
CCN1CCCC(Oc2ccc(Nc3nc(N)c(C(=O)c4cccc(C5CC5)c4)s3)cc2)C1 (stereo not shown) [Example 80, [4-Amino-2-[4-(1-ethyl-piperidin-3-yloxy)-phenylamino]-thiazol-5-yl]-(3-cyclopropyl-phenyl)-methanone]	1840 nM	1720 nM	2280 nM	19 nM
CCN1CCC(Oc2ccc(Nc3nc(N)c(C(=O)c4cccc(C)c4)s3)cc2)C1 (stereo not shown) [Example 83, [4-Amino-2-[4-(1-ethyl-pyrrolidin-3-yloxy)-phenylamino]-thiazol-5-yl]-m-tolyl-methanone]	980 nM	1560 nM	499 nM	49 nM
CCc1cccc(C(=O)c2sc(Nc3ccc(OC4CCN(CC)C4)cc3)nc2N)c1 (stereo not shown) [Example 84, [4-Amino-2-[4-(1-ethyl-pyrrolidin-3-yloxy)-phenylamino]-thiazol-5-yl]-(3-ethyl-phenyl)-methanone]	655 nM	1510 nM	278 nM	46 nM
CCN1CCC(Oc2ccc(Nc3nc(N)c(C(=O)c4cccc(C5CC5)c4)s3)cc2)C1 (stereo not shown) [Example 85, [4-Amino-2-[4-(1-ethyl-pyrrolidin-3-yloxy)-phenylamino]-thiazol-5-yl]-(3-cyclopropyl-phenyl)-methanone]	1080 nM	2010 nM	887 nM	51 nM
